Key:
Assay in all cases: relative viability (nuclei count vs DMSO), 5 days (fraction); higher = more cells survive
NCI-H1437 = system: NCI-H1437
Outline: (§1)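 For relative viability, nuclei counts in treated wells were divided by those in vehicle wells. Lung cancer cell lines had been pin-tool dosed in 1536-well plates the day after seeding and cultured for 5 days, then fixed and stained in one step (final 0.05% Triton X-100, 1% formaldehyde, 1 ug/ml Hoechst) and imaged at 4×. Doses were one drug alone or a fixed anchor-drug dose plus five library-drug doses (not always all listed) in √10 steps, and values are duplicate-plate medians.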

HCC-366 = system: HCC-366
Outline: as §1

NCI-H727 = system: NCI-H727
Outline: as §1

NCI-H1755 = system: NCI-H1755
Outline: as §1

RERF-LC-KJ = system: RERF-LC-KJ
Outline: as §1

NCI-H2347 = system: NCI-H2347
Outline: as §1

NCI-H596 = system: NCI-H596
Outline: as §1

NCI-H1651 = system: NCI-H1651
Outline: as §1

UMC-11 = system: UMC-11
Outline: as §1

NCI-H1563 = system: NCI-H1563
Outline: as §1

NCI-H1734 = system: NCI-H1734
Outline: as §1

HOP-62 = system: HOP-62
Outline: as §1

Compound `Cc1cn(-c2cc(NC(=O)c3ccc(C)c(Nc4nccc(-c5cccnc5)n4)c3)cc(C(F)(F)F)c2)cn1` [Nilotinib] + Cc1nc(Nc2ncc(C(=O)Nc3c(C)cccc3Cl)s2)cc(N2CCN(CCO)CC2)n1 [Dasatinib] (partner 0.075 µM) has a relative viability (NCI-H1437; first compound 0.003162 µM) of 0.327, a relative viability (NCI-H1437; first compound 0.01 µM) of 0.373 and a relative viability (NCI-H1437; first compound 0.03162 µM) of 0.296. For the same compound, the relative viability (NCI-H1437; first compound 0.1 µM) was 0.164, the relative viability (HCC-366; first compound 0.001 µM) was 0.614 and the relative viability (HCC-366; first compound 0.003162 µM) was 0.938. The relative viability (HCC-366; first compound 0.01 µM) was 0.958, the relative viability (HCC-366; first compound 0.03162 µM) was 0.4 and the relative viability (HCC-366; first compound 0.1 µM) was 0.181. The relative viability (NCI-H727; first compound 0.001 µM) was 0.415, the relative viability (NCI-H727; first compound 0.003162 µM) was 0.339 and the relative viability (NCI-H727; first compound 0.01 µM) was 0.425. It also gave a relative viability (NCI-H727; first compound 0.03162 µM) of 0.41, a relative viability (NCI-H727; first compound 0.1 µM) of 0.302 and a relative viability (NCI-H1755; first compound 0.001 µM) of 0.376. The relative viability (NCI-H1755; first compound 0.003162 µM) was 0.381, the relative viability (NCI-H1755; first compound 0.01 µM) was 0.404 and the relative viability (NCI-H1755; first compound 0.03162 µM) was 0.276. It also gave a relative viability (NCI-H1755; first compound 0.1 µM) of 0.184, a relative viability (RERF-LC-KJ; first compound 0.001 µM) of 0.716 and a relative viability (RERF-LC-KJ; first compound 0.003162 µM) of 0.947. The relative viability (RERF-LC-KJ; first compound 0.01 µM) was 0.833, the relative viability (RERF-LC-KJ; first compound 0.03162 µM) was 0.71 and the relative viability (RERF-LC-KJ; first compound 0.1 µM) was 0.549. The relative viability (NCI-H2347; first compound 0.001 µM) was 0.302, the relative viability (NCI-H2347; first compound 0.003162 µM) was 0.344 and the relative viability (NCI-H2347; first compound 0.01 µM) was 0.344. For the same compound, the relative viability (NCI-H2347; first compound 0.03162 µM) was 0.267, the relative viability (NCI-H2347; first compound 0.1 µM) was 0.264 and the relative viability (NCI-H596; first compound 0.001 µM) was 0.485. It also gave a relative viability (NCI-H596; first compound 0.003162 µM) of 0.705, a relative viability (NCI-H596; first compound 0.01 µM) of 0.507 and a relative viability (NCI-H596; first compound 0.03162 µM) of 0.504. The relative viability (NCI-H596; first compound 0.1 µM) was 0.349, the relative viability (NCI-H1651; first compound 0.001 µM) was 0.426 and the relative viability (NCI-H1651; first compound 0.003162 µM) was 0.387. For the same compound, the relative viability (NCI-H1651; first compound 0.01 µM) was 0.42, the relative viability (NCI-H1651; first compound 0.1 µM) was 0.208 and the relative viability (UMC-11; first compound 0.001 µM) was 0.41. The relative viability (UMC-11; first compound 0.003162 µM) was 0.655, the relative viability (UMC-11; first compound 0.01 µM) was 0.649 and the relative viability (UMC-11; first compound 0.1 µM) was 0.247. The relative viability (NCI-H1563; first compound 0.001 µM) was 0.447, the relative viability (NCI-H1563; first compound 0.003162 µM) was 0.447 and the relative viability (NCI-H1563; first compound 0.01 µM) was 0.442. For the same compound, the relative viability (NCI-H1563; first compound 0.03162 µM) was 0.492, the relative viability (NCI-H1563; first compound 0.1 µM) was 0.329 and the relative viability (NCI-H1734; first compound 0.001 µM) was 0.355. It also gave a relative viability (NCI-H1734; first compound 0.003162 µM) of 0.477, a relative viability (NCI-H1734; first compound 0.01 µM) of 0.506 and a relative viability (NCI-H1734; first compound 0.03162 µM) of 0.345. It also gave a relative viability (NCI-H1734; first compound 0.1 µM) of 0.304, a relative viability (HOP-62; first compound 0.001 µM) of 0.603 and a relative viability (HOP-62; first compound 0.003162 µM) of 0.67. It also gave a relative viability (HOP-62; first compound 0.01 µM) of 0.66, a relative viability (HOP-62; first compound 0.03162 µM) of 0.491 and a relative viability (HOP-62; first compound 0.1 µM) of 0.476.

From the supplement of paper PMC10307832
